# Data: paper PMC5478271, “Chemical structure-guided design of dynapyrazoles, cell-permeable dynein inhibitors with a unique mode of action” (eLife, 2017)
# Columns and labels:
# [1] = test system: IMCD3 cells stably expressing mNeonGreen-IFT88; test: Intraflagellar transport assay (mNeonGreen-IFT88 particles in primary cilia); format: cell-based, murine
# Source text: To quantitatively assess the effect of dynapyrazole-A treatment on intraflagellar transport, we analyzed time-lapse images of cilia using KymographDirect, an automated analysis algorithm that extracts particle velocities from kymographs ([Mangeol et al., 2016]). […] Under control conditions (0.3% DMSO, Figure 4B), anterograde particles moved with a speed of 694 ± 117 nm/s (Figure 4D and F, mean ± S.D., 429 particles, 38 cilia) and retrograde particles moved at 421 ± 156 nm/s (Figure 4D and F, 244 particles, 38 cilia), consistent with previous studies ([Ye et al., 2013]). […] After 10 min of treatment, reductions in velocities were similar to those at the 5 min time point (Figure 4—figure supplement 1). Treatment of cilia with a higher dynapyrazole-A concentration (10 µM) slowed both retrograde- and anterograde-directed motion (Figure 4—figure supplement 2). […] We note that dynapyrazole-A, at concentrations close to the IC50 for inhibiting microtubule gliding in vitro, alters intraflagellar transport in a manner similar to what has been observed following dynein 2 loss-of-function in Chlamydomonas ([Engel et al., 2012]).
# Murine inner medullary collecting duct (IMCD3) cells stably expressing mNeonGreen-IFT88 were maintained in DMEM/F12 supplemented with 10% FBS. Cells were typically passaged fewer than 10 times following thawing of frozen stocks. Cells were described previously ([Ye et al., 2013]). 6 × 10^5 cells were seeded onto 22-mm coverslips in a six well plate and incubated for 24 hr at 37°C. The media was then replaced with DMEM/F12 +0.2% FBS and cells were incubated 24 hr to promote cilium formation. Immediately prior to imaging, media was replaced with phenol red-free media (Leibovitz's L-15 + 0.2% FBS) containing either carrier solvent control (0.3% DMSO) or compound. IFT88 transport was observed using a TE2000-E spinning disk confocal microscope (Nikon PlanApo 100x/1.45 objective lens) fitted with a Photometrics Cascade II (EMCCD 512) camera and imaged at a frame rate of 2 frames/s. Kymographs were generated in FIJI using KymographClear and the velocities of mNeonGreen-IFT88 foci movement were quantified by KymographDirect ([Mangeol et al., 2016]). The algorithm used to identify IFT88 foci could identify particles with velocitities ≥ 25nm/s as moving particles.
# For washout experiments, cells were exposed to a 5-min compound treatment as described above. Cells were then washed twice with 5 mL of L-15 supplemented with 10% FBSand 0.3% DMSO. A 5-min incubation followed each wash. Imaging was performed as described above immediately after the second 5-min wash and incubation step had been completed. For washout experiments shown in Figure 4—figure supplement 3, wash steps were performed with either L-15 supplemented with 10% FBS or L-15 supplemented with 0.2% FBS. Following washout of compound, cells were incubated at 37° for 60-min and then imaged.
# Statistical analysis of intraflagellar transport frequencies: Run frequencies output directly from KymographDirect were tabulated across all cilia imaged in a given condition (see Figure 4—figure supplement 2). For each of two experimental conditions (5 µM 8, 10 µM 8) and the respective controls, an un-paired T-test was performed for the difference of means control and compound treatment. This analysis was performed for each direction of motion.
# IMCD3 cells = test: Cellular ATP content (CellTiter-Glo cytotoxicity assay); format: cell-based, murine
# Description: Murine inner medullary collecting duct (IMCD3) cells stably expressing mNeonGreen-IFT88 (described previously [[Ye et al., 2013]]) were maintained in DMEM/F12 supplemented with 10% FBS. Cell line identity was confirmed by the proper localization and motility of mNeonGreen IFT88 puncta, in reference to published analyses from our groups and from the work of others ([Ye et al., 2013]; [Yang et al., 2015]). Cells were seeded in a 96-well plate at a density of 5 × 10^3 cells/well. Following overnight incubation, low-serum media (0.2% FBS) containing solvent control (0.3% DMSO) or compound. At fixed time points, CellTiter-Glo 2.0 (Promega) reagent was added to the wells, mixed by pipetting, and transferred to a white, opaque 96-well plate. After a 10 min incubation, luminescence for each condition was read using a Synergy Neo plate reader (1 s integration time per well).
# [2] = 5 µM 5 min, then washout 10 min in 10% FBS, 0.3% DMSO
# [3] = 5 µM, then 0.2% FBS washout for 1 hr
# [4] = 5 µM, then 10% FBS washout for 1 hr
structure (smiles),measurement,setting,value
"N#Cc1c(C2(c3ccc(Cl)cc3)CC2)nn2c1[nH]c(=O)c1cc(I)ccc12 [Compound 8, 2-[1-(4-chlorophenyl)cyclopropyl]-7-iodo-5-oxo-4H-pyrazolo[1,5-a]quinazoline-3-carbonitrile]","Fa, anterograde frequency after washout",[1]; [2],14.2 ± 6 counts/minute
same,"Fr, retrograde frequency after washout",[1]; [2],9.6 ± 7 counts/minute
same,"Va, anterograde velocity after washout",[1]; [2],697 ± 149 nm/s
same,"Vr, retrograde velocity after washout",[1]; [2],467 ± 136 nm/s
same,Reduction of anterograde particle velocities,"[1]; 5 µM, 5 min, versus DMSO control",~ 18%
same,"Fr, retrograde frequency","[1]; 5 µM, 5 min, DMSO control 6.5 ± 4",4.1 ± 3 counts/minute
same,"Fa, anterograde frequency","[1]; 5 µM, 5 min, DMSO control 11.3 ± 3",8.5 ± 5 counts/minute
same,"Vr, retrograde velocity","[1]; 5 µM, 5 min, DMSO control 421 ± 156",156 ± 107 nm/s
same,"Va, anterograde velocity","[1]; 5 µM, 5 min, DMSO control 694 ± 117",566 ± 116 nm/s
same,"Fr, retrograde frequency","[1]; 5 µM, 10 min, DMSO control 5.9 ± 3",4.2 ± 3 counts/minute
same,"Fa, anterograde frequency","[1]; 5 µM, 10 min, DMSO control 10.2 ± 3",6.9 ± 4 counts/minute
same,"Vr, retrograde velocity","[1]; 5 µM, 10 min, DMSO control 354 ± 134",202 ± 180 nm/s
same,"Va, anterograde velocity","[1]; 5 µM, 10 min, DMSO control 655 ± 124",572 ± 121 nm/s
same,"Fa, anterograde frequency after low-serum washout",[1]; [3],10.1 ± 4 counts/minute
same,"Fr, retrograde frequency after low-serum washout",[1]; [3],5.2 ± 2 counts/minute
same,"Va, anterograde velocity after low-serum washout",[1]; [3],620 ± 134 nm/s
same,"Vr, retrograde velocity after low-serum washout",[1]; [3],219 ± 117 nm/s
same,"Fa, anterograde frequency after high-serum washout",[1]; [4],18.8 ± 5 counts/minute
same,"Fr, retrograde frequency after high-serum washout",[1]; [4],12.4 ± 6 counts/minute
same,"Va, anterograde velocity after high-serum washout",[1]; [4],660 ± 112 nm/s
same,"Vr, retrograde velocity after high-serum washout",[1]; [4],441 ± 156 nm/s
same,"Fa, anterograde frequency",[1]; 10 µM,6.8 ± 4 counts/minute
same,"Fr, retrograde frequency",[1]; 10 µM,4.0 ± 2 counts/minute
same,"Va, anterograde velocity",[1]; 10 µM,466 ± 183 nm/s
same,"Vr, retrograde velocity",[1]; 10 µM,121 ± 78 nm/s
same,ATP levels in cells,"IMCD3 cells; 5 µM, low-serum or serum-free media",stable for up to 3 hr
same,Lowering of intracellular ATP levels,"IMCD3 cells; 15 µM, at 3 hr",~ 70%
